In patent US8952034B2, “Fused heterocyclic compounds as ion channel modulators” (Gilead Sciences, Inc., priority 2009, dated 2015) one finds inhibition data, which are given here for 35 compounds.

For this test, the target named is wild-type human cardiac sodium channel, hNav1.5 (Homo sapiens, UniProt Q14524). In words: Late INa screening assay (automated whole cell patch clamp, PatchXpress). In kind it is cell-based. Conditions: HEK293 cells expressing hNav1.5, late INa generated with 10 μM Tefluthrin (or 50 nM ATX II); for inhibition at 1 µM: compound at 1 μM, read-out: LateINa_1 uM (percent block of late INa); for inhibition at 10 µM: compound at 10 μM, read-out: LateINa_10 uM (percent block of late INa). A digest of the protocol:
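Late sodium current through wild-type human hNav1.5 stably expressed in HEK293 cells (no beta subunits) was recorded by automated whole-cell patch clamp on a PatchXpress 7000A at 24-27° C. Late INa was induced with 10 μM Tefluthrin or 50 nM ATX II. Cells were stepped from −120 mV to −20 mV for 250 ms at 0.1 Hz, and percent block was normalized to current in Na-free extracellular solution.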
On the technique in general: The patch-clamp technique gives a direct electrical read-out from membranes.

SMILES strings stand for the structures.

wild-type human cardiac sodium channel, hNav1.5, sequence (Q14524 whole entry): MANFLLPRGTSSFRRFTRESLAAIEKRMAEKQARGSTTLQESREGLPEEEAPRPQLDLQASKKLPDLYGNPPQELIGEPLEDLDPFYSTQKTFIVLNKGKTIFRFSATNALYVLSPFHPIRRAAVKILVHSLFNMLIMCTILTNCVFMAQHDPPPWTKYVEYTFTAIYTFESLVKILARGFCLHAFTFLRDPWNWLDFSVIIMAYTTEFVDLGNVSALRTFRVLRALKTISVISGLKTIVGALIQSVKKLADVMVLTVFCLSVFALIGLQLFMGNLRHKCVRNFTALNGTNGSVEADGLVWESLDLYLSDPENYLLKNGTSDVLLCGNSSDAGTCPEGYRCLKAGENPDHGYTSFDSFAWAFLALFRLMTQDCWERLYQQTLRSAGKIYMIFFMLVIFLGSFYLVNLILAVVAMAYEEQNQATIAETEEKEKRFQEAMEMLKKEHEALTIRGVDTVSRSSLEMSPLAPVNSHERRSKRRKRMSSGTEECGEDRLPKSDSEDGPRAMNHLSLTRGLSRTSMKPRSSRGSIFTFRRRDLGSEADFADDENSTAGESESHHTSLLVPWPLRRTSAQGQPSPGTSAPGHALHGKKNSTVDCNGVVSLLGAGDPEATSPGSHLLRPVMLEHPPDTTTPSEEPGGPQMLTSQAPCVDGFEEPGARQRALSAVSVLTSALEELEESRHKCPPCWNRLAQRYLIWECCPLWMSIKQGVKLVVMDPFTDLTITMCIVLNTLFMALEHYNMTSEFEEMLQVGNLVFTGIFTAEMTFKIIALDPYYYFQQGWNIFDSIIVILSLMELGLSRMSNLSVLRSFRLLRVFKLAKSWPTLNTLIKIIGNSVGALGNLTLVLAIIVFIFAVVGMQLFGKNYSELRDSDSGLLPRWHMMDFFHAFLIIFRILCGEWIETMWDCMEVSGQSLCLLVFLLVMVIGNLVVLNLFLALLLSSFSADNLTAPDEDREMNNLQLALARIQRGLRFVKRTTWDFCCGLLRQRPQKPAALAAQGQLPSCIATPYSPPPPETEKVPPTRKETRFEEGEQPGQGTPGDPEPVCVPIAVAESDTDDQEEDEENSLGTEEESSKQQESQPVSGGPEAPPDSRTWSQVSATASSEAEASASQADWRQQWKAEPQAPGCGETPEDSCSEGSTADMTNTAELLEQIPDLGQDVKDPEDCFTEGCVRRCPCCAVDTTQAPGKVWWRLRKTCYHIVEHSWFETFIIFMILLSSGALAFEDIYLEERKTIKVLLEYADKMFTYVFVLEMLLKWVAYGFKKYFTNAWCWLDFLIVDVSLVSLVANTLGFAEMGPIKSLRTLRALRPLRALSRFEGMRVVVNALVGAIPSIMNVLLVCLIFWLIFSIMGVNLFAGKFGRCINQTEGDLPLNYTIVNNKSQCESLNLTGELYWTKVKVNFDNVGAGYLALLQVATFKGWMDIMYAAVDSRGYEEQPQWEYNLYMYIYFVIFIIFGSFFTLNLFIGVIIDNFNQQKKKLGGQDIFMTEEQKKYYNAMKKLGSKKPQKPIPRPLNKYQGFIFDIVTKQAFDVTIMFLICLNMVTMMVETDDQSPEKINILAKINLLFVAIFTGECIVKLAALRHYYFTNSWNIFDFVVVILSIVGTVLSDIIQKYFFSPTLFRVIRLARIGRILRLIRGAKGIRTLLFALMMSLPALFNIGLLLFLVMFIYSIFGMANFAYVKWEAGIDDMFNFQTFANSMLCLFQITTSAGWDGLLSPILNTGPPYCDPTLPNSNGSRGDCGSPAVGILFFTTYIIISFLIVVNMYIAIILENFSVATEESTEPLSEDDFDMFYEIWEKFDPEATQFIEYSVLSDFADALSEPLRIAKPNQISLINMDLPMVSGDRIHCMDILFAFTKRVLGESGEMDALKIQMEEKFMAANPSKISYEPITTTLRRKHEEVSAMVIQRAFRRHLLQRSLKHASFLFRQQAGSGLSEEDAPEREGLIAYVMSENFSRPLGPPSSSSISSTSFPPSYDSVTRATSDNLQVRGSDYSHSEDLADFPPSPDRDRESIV

Regarding `FC(F)(F)COc1ccc(-c2ccc3nnc(C(F)(F)OCc4cc(-c5ccccc5)on4)n3c2)cn1` [BHN-324, 3-{difluoro[(5-phenyl-1,2-oxazol-3-yl)methoxy]methyl}-6-[6-(2,2,2-trifluoroethoxy)pyridin-3-yl][1,2,4]triazolo[4,3-a]pyridine], the inhibition at 1 µM turned out to be 46.3%. With `O=[N+]([O-])c1ccc(-c2ccc3nnc(C(F)(F)F)n3c2)c(Cl)c1` [BHN-292, 6-(2-chloro-4-nitrophenyl)-3-(trifluoromethyl)[1,2,4]triazolo[4,3-a]pyridine], the inhibition at 1 µM worked out at 26%. `COc1ccc(-c2ccc3nnc(-c4cccc(C#N)c4)n3n2)cc1` [BHN-45, 3-[6-(4-methoxyphenyl)[1,2,4]triazolo[4,3-b]pyridazin-3-yl]benzonitrile]: the inhibition at 10 µM is 36.3%. As to `Cc1cc(-c2ccc(OC(F)(F)F)cc2)cn2c(C(F)(F)F)nnc12` [BHN-103, 8-methyl-6-[4-(trifluoromethoxy)phenyl]-3-(trifluoromethyl)[1,2,4]triazolo[4,3-a]pyridine], the inhibition at 1 µM came out at 40.7%. `FC(F)(F)Oc1ccc(-c2ccc3nnc(C(F)(F)OCc4coc(-c5ccc(C(F)(F)F)cc5)n4)n3c2)cc1` [BHN-288, 3-[difluoro({2-[4-(trifluoromethyl)phenyl]-1,3-oxazol-4-yl}methoxy)methyl]-6-[4-(trifluoromethoxy)phenyl][1,2,4]triazolo[4,3-a]pyridine]: the inhibition at 1 µM came out at 39.2%. `FC(F)(F)Oc1ccc(-c2ccc3nnc(C(F)(F)OCc4ccc5c(c4)OC(F)(F)O5)n3c2)cc1` [BHN-225, 3-{[(2,2-difluoro-1,3-benzodioxol-5-yl)methoxy](difluoro)methyl}-6-[4-(trifluoromethoxy)phenyl][1,2,4]triazolo[4,3-a]pyridine]: the inhibition at 1 µM was 63%. Still for that read-out and setting: as for `CCOC(=O)COCC(F)(F)c1nnc2ccc(-c3ccc(OC(F)(F)F)cc3)cn12` [BHN-167, ethyl (2,2-difluoro-2-{6-[4-(trifluoromethoxy)phenyl][1,2,4]triazolo[4,3-a]pyridin-3-yl}ethoxy)acetate], the figure is 45.8%. Take `N#Cc1ccc(-c2nnc3ccc(-c4ccc(OC(F)(F)F)cc4)nn23)cc1` [BHN-42, 4-{6-[4-(trifluoromethoxy)phenyl][1,2,4]triazolo[4,3-b]pyridazin-3-yl}benzonitrile]: the inhibition at 10 µM came out at 43.8%.

Take `FC(F)(F)Oc1ccc(-c2ccc3nnc(C(F)(F)OCc4ccccc4-c4cccnc4)n3c2)cc1` [BHN-327, 3-(difluoro{[2-(pyridin-3-yl)benzyl]oxy}methyl)-6-[4-(trifluoromethoxy)phenyl][1,2,4]triazolo[4,3-a]pyridine]: the inhibition at 1 µM amounted to 54.2%. `CC(C)(O)c1nnc2ccc(-c3ccc(Oc4ccccc4)cc3)nn12` [BHN-60, 2-[6-(4-phenoxyphenyl)[1,2,4]triazolo[4,3-b]pyridazin-3-yl]propan-2-ol]: the inhibition at 10 µM was 48.6%. Consider `CC1(COC(F)(F)c2nnc3ccc(-c4ccc(OC(F)(F)F)cc4)cn23)COC1` [BHN-142, 3-{difluoro[(3-methyloxetan-3-yl)methoxy]methyl}-6-[4-(trifluoromethoxy)phenyl][1,2,4]triazolo[4,3-a]pyridine], for which the inhibition at 1 µM is 38.8%. For `FC(F)(F)Oc1ccc(-c2ccc3nnc(C(F)(F)OCC4CC4(F)F)n3c2)cc1` (stereo not drawn) [BHN-294, 3-{[(2,2-difluorocyclopropyl)methoxy](difluoro)methyl}-6-[4-(trifluoromethoxy)phenyl][1,2,4]triazolo[4,3-a]pyridine], the inhibition at 1 µM was determined as 77.6%. Consider `N#Cc1ccc(C(F)(F)Oc2ccc(-c3ccc4nnc(C(F)(F)F)n4c3)cc2)cc1` [BHN-280, 4-(difluoro{4-[3-(trifluoromethyl)[1,2,4]triazolo[4,3-a]pyridin-6-yl]phenoxy}methyl)benzonitrile], for which the inhibition at 1 µM was 63.7%. In the case of `Cn1ccc(COC(F)(F)c2nnc3ccc(-c4ccc(OC(F)(F)F)cc4)cn23)n1` [BHN-301, 3-{difluoro[(1-methyl-1H-pyrazol-3-yl)methoxy]methyl}-6-[4-(trifluoromethoxy)phenyl][1,2,4]triazolo[4,3-a]pyridine], the inhibition at 1 µM came to 29.9%.

Turning to `COc1cc(-c2ccc3nnc(C(F)(F)F)n3c2)cc(OC)c1OC` [BHN-107, 3-(trifluoromethyl)-6-(3,4,5-trimethoxyphenyl)[1,2,4]triazolo[4,3-a]pyridine], the inhibition at 1 µM turned out to be 16.5%. As to `Cc1cc(OC(F)(F)F)ccc1-c1ccc2nnc(C(F)(F)F)n2n1` [BHN-26, 6-[2-methyl-4-(trifluoromethoxy)phenyl]-3-(trifluoromethyl)[1,2,4]triazolo[4,3-b]pyridazine], the inhibition at 1 µM came out at 64.4% and the inhibition at 10 µM was determined as 75.3%. For the compound `COC(=O)/C=C/c1nc(C(F)(F)F)n2cc(-c3ccc(OC(F)(F)F)cc3)ccc12` [BHN-58, methyl (2E)-3-{6-[4-(trifluoromethoxy)phenyl]-3-(trifluoromethyl)imidazo[1,5-a]pyridin-1-yl}prop-2-enoate], the inhibition at 10 µM was 27.6%.

On to `FC(F)(F)Oc1ccc(-c2ccc3nnc(-c4ccc(OC(F)(F)F)cc4)n3n2)cc1` [BHN-118, 3,6-bis[4-(trifluoromethoxy)phenyl][1,2,4]triazolo[4,3-b]pyridazine], for which the inhibition at 1 µM was determined as 46.3%. For the compound `OCc1nnc2ccc(-c3ccc(OC(F)(F)F)cc3)cn12` [BHN-130, {6-[4-(trifluoromethoxy)phenyl][1,2,4]triazolo[4,3-a]pyridin-3-yl}methanol], the inhibition at 1 µM was 21.9%. For `c1ccc(Oc2ccc(-c3ccc4nnc(C5CC5)n4n3)cc2)cc1` [BHN-39, 3-cyclopropyl-6-(4-phenoxyphenyl)[1,2,4]triazolo[4,3-b]pyridazine], the inhibition at 1 µM is 44.4% and the inhibition at 10 µM came to 74.3%. `FC(F)(F)Oc1ccc(-c2ccc3nnc(C(F)(F)F)n3c2)cc1CN1CCOCC1` [BHN-72, 6-[3-(morpholin-4-ylmethyl)-4-(trifluoromethoxy)phenyl]-3-(trifluoromethyl)[1,2,4]triazolo[4,3-a]pyridine]: the inhibition at 10 µM was 26.7%.

Take `COc1ccc(-c2ccc3nnc(-c4ccc(C#N)cc4)n3n2)cc1` [BHN-44, 4-[6-(4-methoxyphenyl)[1,2,4]triazolo[4,3-b]pyridazin-3-yl]benzonitrile]: the inhibition at 10 µM was determined as 15%. As for `Clc1ccc(Oc2ccc(-c3ccc4nnnn4n3)cc2)cc1` [BHN-270, 6-[4-(4-chlorophenoxy)phenyl]tetrazolo[1,5-b]pyridazine], the inhibition at 1 µM was 21.7%.

With `CC(O)COC(F)(F)c1nnc2ccc(-c3ccc(OC(F)(F)F)cc3)cn12` (stereo not drawn) [BHN-158, 1-(difluoro{6-[4-(trifluoromethoxy)phenyl][1,2,4]triazolo[4,3-a]pyridin-3-yl}methoxy)propan-2-ol], the inhibition at 1 µM turned out to be 32.9%. As to `FC(F)(F)Oc1ccc(-c2ccc3nnc(C(F)(F)OCc4ccnc(N5CCCCC5)c4)n3c2)cc1` [BHN-320, 3-(difluoro{[2-(piperidin-1-yl)pyridin-4-yl]methoxy}methyl)-6-[4-(trifluoromethoxy)phenyl][1,2,4]triazolo[4,3-a]pyridine], the inhibition at 1 µM came to 76.3%.

For the compound `Cc1ccc(COCc2nnc3ccc(-c4ccc(OC(F)(F)F)cc4)cn23)c(C)c1` [BHN-251, 3-{[(2,4-dimethylbenzyl)oxy]methyl}-6-[4-(trifluoromethoxy)phenyl][1,2,4]triazolo[4,3-a]pyridine], the inhibition at 1 µM was determined as 75.8%. Regarding `FC(F)(F)Oc1ccc(-c2ccc3nnc(-c4ccccc4)n3c2)cc1` [BHN-21, 3-phenyl-6-[4-(trifluoromethoxy)phenyl][1,2,4]triazolo[4,3-a]pyridine], the inhibition at 1 µM stood at 65.2% and the inhibition at 10 µM was 86.5%. Regarding `FC(F)(F)Oc1ccc(-c2ccc3nnc(C(F)(F)CCl)n3c2)cc1` [BHN-160, 3-(2-chloro-1,1-difluoroethyl)-6-[4-(trifluoromethoxy)phenyl][1,2,4]triazolo[4,3-a]pyridine], the inhibition at 1 µM was 62%. Regarding `COCC(F)(F)c1nnc2ccc(-c3cc(F)c(Oc4ccccc4)c(F)c3)cn12` [BHN-233, 3-(1,1-difluoro-2-methoxyethyl)-6-(3,5-difluoro-4-phenoxyphenyl)[1,2,4]triazolo[4,3-a]pyridine], the inhibition at 1 µM worked out at 31.4%. The same measure, in the same setting: the value for `c1ccc(Oc2ccc(-c3ccc4nnnn4c3)cc2)cc1` [BHN-97, 6-(4-phenoxyphenyl)tetrazolo[1,5-a]pyridine] was 73.2%; that for `FC(F)(F)Oc1ccc(-c2ccc3nnc(Sc4ccccc4)n3c2)cc1` [BHN-170, 3-(phenylsulfanyl)-6-[4-(trifluoromethoxy)phenyl][1,2,4]triazolo[4,3-a]pyridine] was 66.2%.

As to `COCC(F)(F)c1nnc2ccc(-c3ccc(Oc4ccc(Cl)cc4)cc3)cn12` [BHN-137, 6-[4-(4-chlorophenoxy)phenyl]-3-(1,1-difluoro-2-methoxyethyl)[1,2,4]triazolo[4,3-a]pyridine], the inhibition at 1 µM came out at 48.2%. Consider `CC(=O)c1ccc(-c2ccc3nnc(C(F)(F)F)n3c2)cc1` [BHN-154, 1-(4-(3-(trifluoromethyl)-[1,2,4]triazolo[4,3-a]pyridin-6-yl)phenyl)ethanone], for which the inhibition at 1 µM came to 19.2%. On to `CCOC(=O)c1cccc(-c2nnc3ccc(-c4ccc(OC(F)(F)F)cc4)cn23)c1` [BHN-87, ethyl 3-{6-[4-(trifluoromethoxy)phenyl][1,2,4]triazolo[4,3-a]pyridin-3-yl}benzoate], for which the inhibition at 1 µM turned out to be 38.9% and the inhibition at 10 µM came to 72.2%. Consider `FC(F)(F)c1nnc2ccc(-c3cnc(C4CC4)nc3)cn12` [BHN-89, 6-(2-cyclopropylpyrimidin-5-yl)-3-(trifluoromethyl)[1,2,4]triazolo[4,3-a]pyridine], for which the inhibition at 10 µM was determined as 20.5%.
